The values below come from patent US8563586B2, “1,(3,)5-substituted imidazoles, their use in the treatment of hypertension and methods for their preparation” (Eldrug S.A., priority 2007, dated 2013).

Data set [1] deals with anesthetized rabbits made hypertensive by AII infusion. In words: In vivo: anesthetized rabbits made hypertensive by AII infusion, IV boluses of compound. Further details: species or system New Zealand White rabbits. Particulars: for in vivo antihypertensive potency / activity, relative, in words: anesthetized rabbits, angiotensin II-induced hypertension; for AII antagonistic effect: doses of 2 and 3.5 mol, cumulative IV boluses, potency order 22, 20, 15, 18, 23, 21, 30, 29. The procedure:
The applicant has also established an in vivo assay using anesthetized rabbits in [Onassis 30 Cardiac Institute] which allows us to estimate relative potencies.
The assay is a routine assay and constitutes a convenient method to measure activities of AII antagonists.
In vivo experiments: Adult normotensive male New Zealand White rabbits weighing between 2.5 and 3.3 kg were used in the study following previously described methods.^46,47 In brief, animals were anesthetized by pentobarbitone (30 mg/kg), intubated and mechanically ventilated with 100% oxygen using a respirator for small animals (MD Industries, Mobile, Ala., USA). The tidal volume was 15 ml and the rate was adjusted to keep blood gases within normal rage. Two polyethylene catheters were inserted, one in the carotid artery for continuous blood pressure monitoring via a transducer attached to a multichannel recorder (Nihon-Kohden, Model 6000, Japan) and the other one in the jugular vein for the administrations of solution made by diluting Angiotensin II (AII) (Hypertensin, CIBA) in 5% dextrose at final concentration of 5 µg/ml. Based on previous testing with this rabbit preparation submaximal angiotensin II-dependent hypertension was induced by infusing Angiotensin via a syringe pump (Harvard Apparatus Pump 22, Harvard Apparatus, Natick. Mass., USA) at a constant rate of 0.2 ml/min ([…]). […] Five minutes after the establishment of hypertension, two cumulative IV boluses of each compound (2 and 3.5 mol) were given via an ear vein 20 minutes apart. The blood pressure was monitored for 20 minutes after the second bolus and then angiotensin infusion was halted and blood pressure was recorded for an additional period of 20 minutes until the end of the experiment. Boluses of the same dose of Losartan, as positive control, were used in the same experimental model.
The antihypertensive effect and the degree of potency of these compounds were tested in a preparation of anesthetized rabbits made hypertensive by AII infusion.

The test system of data set [2] is conscious rabbits made hypertensive by angiotensin II infusion. Particulars: 15 mg mixed with vaseline applied on bare skin. From the text:
Conscious rabbits were made hypertensive by angiotensin II infusion. A mixture of 1 5 mgr of our lipophilic angiotensin II receptor blocker compound 20 (or its dialkylated counterpart) with vaseline was applied on bare skin.

The target of a further data set is T1, human AT1 (Homo sapiens, UniProt P30556).
T1 construct: purchased PerkinElmer Life Sciences, Inc., Boston, Mass., USA
T1 sequence (P30556 1-359): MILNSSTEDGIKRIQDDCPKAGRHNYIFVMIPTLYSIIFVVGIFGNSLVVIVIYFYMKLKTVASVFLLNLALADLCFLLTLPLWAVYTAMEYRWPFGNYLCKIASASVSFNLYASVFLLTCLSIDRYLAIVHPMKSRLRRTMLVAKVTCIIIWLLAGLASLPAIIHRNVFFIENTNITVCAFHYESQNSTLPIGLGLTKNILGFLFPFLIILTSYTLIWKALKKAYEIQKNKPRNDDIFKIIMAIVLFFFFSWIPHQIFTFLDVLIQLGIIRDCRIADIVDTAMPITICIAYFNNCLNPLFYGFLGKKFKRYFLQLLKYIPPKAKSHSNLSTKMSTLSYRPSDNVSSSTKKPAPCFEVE
In words: In vitro binding, membranes containing AT1 receptor, radioligand [125I]Sar1,Ile8-Angiotensin II.

In a further data set the test system is anesthesized rabbits. Particulars: rabbit, in vivo; cited from earlier work.
The subject of another data set is rat isolated uterus. Particulars: cited from earlier work.

Entries after “also recorded” stand apart in the source; their conditions may differ.

`OCc1nc2ccccc2n1Cc1ccc(-c2ccccc2-c2nnnn2Cc2ccccc2)cc1` [Compound 29, 1-[[2′-[(N-benzyl)tetrazol-5-yl]biphenyl-4-yl]methyl]-2-hydroxymethyl benzimidazole] returned a melting point of 62 to 63 °C. For the same compound, in data set [1], the “in vivo antihypertensive potency / activity, relative, in words” value is “even less potent” and the AII antagonistic effect entry is recorded as “dose-dependent AII antagonistic effect”.
For the compound `CCCCc1cnc(CO)n1Cc1ccc(-c2ccccc2-c2nnn(C(c3ccccc3)(c3ccccc3)c3ccccc3Cl)n2)cc1` [Compound 20, 5-Butyl-2-hydroxymethyl-1-[[2′-[[N-(2-chloro-triphenylmethyl)]tetrazol-5yl]biphenyl-4-yl]methyl]imidazole], in data set [2], the “blood pressure lowered by” value worked out at 20 mmHg and the “duration of blood pressure lowering” value is recorded as “two”. Moreover, in data set [1], the “in vivo antihypertensive potency / activity, relative, in words” value is on record as “highly potent; also recorded: more potent compared to 18; also recorded: most potent” and the AII antagonistic effect result was “dose-dependent AII antagonistic effect”. Besides, the “affinity for AT1 receptor, in words, relative to Losartan” value on human AT1 (in vitro binding studies) is “lower affinity”.
For the compound `CCCCc1cncn1Cc1ccc(-c2ccccc2-c2nnnn2Cc2ccccc2)cc1` [Compound 24, 1-[[2′-[(N-benzyl)tetrazol-5-yl]biphenyl-4-yl]methyl]-5-butylimidazole], the melting point fell in the range of 69 to 71 °C.
For `Cc1cn(C(c2ccccc2)(c2ccccc2)c2ccccc2)cn1` [Compound 15, 3-(Triphenylmethyl)-5-methylimidazole], the AII antagonistic effect result in data set [1] is given as “dose-dependent AII antagonistic effect”.
Consider [Sar^1, Lys^3, Glu^5] ANG II, for which the “activity in anesthesized rabbits” value with anesthesized rabbits is given as “agonist activity”. In addition, the “activity in the rat uterus assay” value with rat isolated uterus is listed as “agonist activity”.
Turning to `CCCCc1cncn1Cc1ccc(-c2ccccc2-c2nnn(C(c3ccccc3)(c3ccccc3)c3ccccc3Cl)n2)cc1` [Compound 18, 5-Butyl-1-[[2′-[[N-(2-chloro-triphenylmethyl)]tetrazol-5-yl]biphenyl-4-yl]methyl]imidazole], in data set [1], the “in vivo antihypertensive potency / activity, relative, in words” value is “more potent; also recorded: less potent compared to 20 and 25”; the AII antagonistic effect result was “dose-dependent AII antagonistic effect”.
As for `Cc1cnc(CO)n1Cc1ccc(-c2ccccc2-c2nnn[nH]2)cc1` [Compound 23, 5-methyl-2-hydroxymethyl-1-[[2′-(1H-tetrazol-5-yl)biphenyl-4-yl]methyl]imidazole], in data set [1], the “in vivo antihypertensive potency / activity, relative, in words” value is recorded as “less potent” and the AII antagonistic effect entry was “dose-dependent AII antagonistic effect”.
As to `CCCCc1cnc(CO)n1Cc1ccc(-c2ccccc2-c2nnn[nH]2)cc1` [Compound 22, 5-butyl-2-hydroxymethyl-1-[[2′-(1H-tetrazol-5-yl)biphenyl-4-yl]methyl]imidazole], in data set [1], the “in vivo antihypertensive potency / activity, relative, in words” value is “highly potent; also recorded: more potent compared to 18; also recorded: slightly superior in activity; also recorded: most potent” and the AII antagonistic effect result was “dose-dependent AII antagonistic effect”. On human AT1 (from IC50 values), the “fold lower affinity for the AT1 receptor than that of Losartan” value is given as ~3 fold. Besides, the IC50 at human AT1 (membranes containing AT1 receptors, competition with 0.1 nM [125I]Sar1,Ile8-Angiotensin II, read-out: IC50, affinity for the AT1 receptor) came to 53.8 ± 6.4 nM.
In the case of `Cc1cnc(CO)n1Cc1ccc(-c2ccccc2-c2nnn(C(c3ccccc3)(c3ccccc3)c3ccccc3Cl)n2)cc1` [Compound 21, 5-Methyl-2-hydroxymethyl-1-[[2′-[[N-(2-chloro-triphenylmethyl)]tetrazol-5-yl]biphenyl-4-yl]methyl]imidazole], in data set [1], the “in vivo antihypertensive potency / activity, relative, in words” value is “less potent; also recorded: least active” and the AII antagonistic effect entry is “dose-dependent AII antagonistic effect”.
`c1ccc(Cn2nnnc2-c2ccccc2-c2ccc(Cn3cnc4ccccc43)cc2)cc1` [Compound 28, 1-[[2′-[(N-benzyl)tetrazol-5-yl]biphenyl-4-yl]methyl]benzimidazole] registered a melting point of 62 to 64 °C. In data set [1], the “in vivo antihypertensive potency / activity, relative, in words” value is “even less potent”.
For the compound `CCCCc1cnc(CO)n1Cc1ccc(-c2ccccc2-c2nnnn2Cc2ccccc2)cc1` [Compound 25, 1-[[2′-[(N-benzyl)tetrazol-5-yl]biphenyl-4-yl]methyl]-5-butyl-2hydroxymethyl imidazole], the “in vivo antihypertensive potency / activity, relative, in words” value in data set [1] is reported as “more potent compared to 18; also recorded: most potent”.
In the case of `OCc1nc2ccccc2n1Cc1ccc(-c2ccccc2-c2nnn[nH]2)cc1` [Compound 30, 2-hydroxymethyl-1-[[2′-(1H-tetrazol-5-yl)biphenyl-4-yl]methyl]benzimidazole], in data set [1], the “in vivo antihypertensive potency / activity, relative, in words” value is listed as “even less potent; also recorded: least active” and the AII antagonistic effect entry is given as “dose-dependent AII antagonistic effect”.

The term melting point denotes the temperature, or range, at which the solid turns liquid. Usually IC50 stands for the concentration that gives 50% inhibition.
